Test results taken from patent US9708279B2, “2-acylaminothiazoles for the treatment of cancer” (UNIVERSITA′ DEGLI STUDI DI MILANO-BICOCCA, priority 2013, dated 2017).

These molecules were tested on parental untransformed BaF3 cells (assay: Tritiated thymidine uptake cell proliferation assay, parental BaF3). Conditions: Mus musculus, BaF3, read-out: Parental IC50.
Type: cell-based
Method: Tritiated Thymidine Uptake Cell Proliferation Assay
The parent untransformed BaF3 cells and ALK-negative cells are used as controls. Cells are seeded in U-bottomed 96-well plates at 10 000 cells/well in a volume of 100 μL in supplemented medium. In the case of the parent untransformed BaF3 cells, the medium is supplemented with IL-3. Serial dilutions of inhibitors are added to the appropriate wells and volumes adjusted to 200 μL. Controls were treated with the equivalent volume of vehicle, DMSO, alone. Plates are incubated at 37° C. for 72 h. ^3[H]-thymidine (1 μCiCi/well) is added for the last 8 h of incubation. Cells are harvested on to paper filters and ^3[H]-thymidine incorporation is measured using a β scintillation counter (1430 MicroBeta, Wallac, Turku, Finland). The 50% inhibitory concentration (IC50) is defined as the concentration of inhibitor, expressed in micromolar, that give a 50% decrease in ^3[H]-thymidine uptake compared with controls.

Question: `CN1CCN(Cc2ccc(C(=O)Nc3nc(-c4cccc(C#Cc5ccc(F)cc5)c4)cs3)cc2)CC1` [Example 32, N-(4-(3-((4-fluorophenyl)ethynyl)phenyl)thiazol-2-yl)-4-((4-methylpiperazin-1-yl)methyl)benzamide] was tested. Which IC50 did it give?
Answer: 2.4 µM

Question: `CN1CCN(Cc2ccc(C(=O)Nc3nc(-c4cccc(C#CCO[Si](c5ccccc5)(c5ccccc5)C(C)(C)C)c4)cs3)cc2)CC1` [Example 21, N-(4-(3-(3-((tert-butyldiphenylsilyl)oxy)prop-1-yn-1-yl)phenyl)thiazol-2-yl)-4-((4-methylpiperazin-1-yl)methyl)benzamide] was tested. Which IC50 did it give?
Answer: 12 µM

Question: How did the IC50 turn out when `CC(C)(C)[Si](C#Cc1cccc(-c2csc(NC(=O)c3ccc(CN4CCOCC4)cc3)n2)c1)(c1ccccc1)c1ccccc1` [Example 41, N-(4-(3-((tert-butyldiphenylsilyl)ethynyl)phenyl)thiazol-2-yl)-4-(morpholinomethyl)benzamide] was run?
Answer: > 50 µM

Question: `CN1CCN(Cc2ccc(C(=O)Nc3nc(-c4ccc(C#C[Si](C)(C)C(C)(C)C)cc4)cs3)cc2)CC1` [Example 37, N-(4-(4-((tert-butyldimethylsilyl)ethynyl)phenyl)thiazol-2-yl)-4-((4-methylpiperazin-1-yl)methyl)benzamide] was tested. Which IC50 did it give?
Answer: 2.4 µM

Question: For `CN1CCN(Cc2ccc(C(=O)Nc3nc(-c4cccc(C#CC5=CCCCC5)c4)cs3)cc2)CC1` [Example 19, N-(4-(3-(cyclohex-1-en-1-ylethynyl)phenyl)thiazol-2-yl)-4-((4-methylpiperazin-1-yl)methyl)benzamide], which IC50 is on record?
Answer: 0.49 µM

Question: How did the IC50 turn out when `CN1CCN(Cc2ccc(C(=O)Nc3nc(-c4cccc(C#C[Si](C)(C)C(C)(C)C)c4)cs3)cc2)CC1` [Example 24, N-(4-(3-((tert-butyldimethylsilyl)ethynyl)phenyl)thiazol-2-yl)-4-((4-methylpiperazin-1-yl)methyl)benzamide] was run?
Answer: 2.4 µM

Question: Which IC50 does the source give for `CN1CCN(Cc2ccc(C(=O)Nc3nc(-c4cccc(C#Cc5ccccc5OC(F)(F)F)c4)cs3)cc2)CC1` [Example 42, 4-((4-methylpiperazin-1-yl)methyl)-N-(4-(3-((2-(trifluoromethoxy)phenyl)ethynyl)phenyl)thiazol-2-yl)benzamide] here?
Answer: 2.6 µM

Question: `Cc1ccc(-c2csc(NC(=O)c3ccc(CN4CCN(C)CC4)cc3)n2)cc1C#C[Si](C(C)C)(C(C)C)C(C)C` [Example 14, N-(4-(4-methyl-3-((triisopropylsilyl)ethynyl)phenyl)thiazol-2-yl)-4-((4-methylpiperazin-1-yl)methyl)benzamide] was tested. Which IC50 did it give?
Answer: 7.8 µM

Question: Which IC50 does the source give for `CN1CCN(Cc2ccc(C(=O)Nc3nc(-c4ccc(C#Cc5ccccc5C(F)(F)F)c(C#Cc5ccccc5C(F)(F)F)c4)cs3)cc2)CC1` [Example 13, N-(4-(3,4-bis((2-(trifluoromethyl)phenyl)ethynyl)phenyl)thiazol-2-yl)-4-((4-methylpiperazin-1-yl)methyl)benzamide] here?
Answer: 3.1 µM

Question: `CN1CCN(Cc2ccc(C(=O)Nc3nc(-c4cccc(C#Cc5ccccc5C(F)(F)F)c4)cs3)cc2)CC1` [Example 12, 4-((4-methylpiperazin-1-yl)methyl)-N-(4-(3-((2-(trifluoromethyl)phenyl)ethynyl)phenyl)thiazol-2-yl)benzamide] was tested. Which IC50 did it give?
Answer: 1.8 µM

Question: Which IC50 does the source give for `CC(C)[Si](C#Cc1cccc(-c2csc(NC(=O)c3ccc(CN4CCN(C)CC4)cc3)n2)c1)(C(C)C)C(C)C` [Example 48, 4-((4-methylpiperazin-1-yl)methyl)-N-(4-(3-((triisopropylsilyl)ethynyl)phenyl)thiazol-2-yl)benzamide] here?
Answer: 13 µM

Question: For `CN1CCN(Cc2ccc(C(=O)Nc3nc(-c4cccc(C#Cc5ccccc5F)c4)cs3)cc2)CC1` [Example 31, N-(4-(3-((2-fluorophenyl)ethynyl)phenyl)thiazol-2-yl)-4-((4-methylpiperazin-1-yl)methyl)benzamide], which IC50 is on record?
Answer: 2.2 µM

Question: For `CC(C)[Si](C#Cc1cccc(-c2csc(NC(=O)c3ccc(Cn4cnnn4)cc3)n2)c1)(C(C)C)C(C)C` [Example 45], which IC50 is on record?
Answer: 8 µM

Question: How did the IC50 turn out when `CC(C)(C)[Si](C)(C)C#Cc1cccc(-c2csc(NC(=O)c3ccc(CN4CCOCC4)cc3)n2)c1` [Example 40, N-(4-(3-((tert-butyldimethylsilyl)ethynyl)phenyl)thiazol-2-yl)-4-(morpholinomethyl)benzamide] was run?
Answer: 18 µM

Question: `CN1CCN(Cc2ccc(C(=O)Nc3nc(-c4cccc(C#CCOC(c5ccccc5)(c5ccccc5)c5ccccc5)c4)cs3)cc2)CC1` [Example 30, 4-((4-methylpiperazin-1-yl)methyl)-N-(4-(3-(3-(trityloxy)prop-1-yn-1-yl)phenyl)thiazol-2-yl)benzamide] was tested. Which IC50 did it give?
Answer: 10 µM

Question: How did the IC50 turn out when `COc1ccccc1C#Cc1cc(-c2csc(NC(=O)c3ccc(CN4CCN(C)CC4)cc3)n2)ccc1C` [Example 8, N-(4-(3-((2-methoxyphenyl)ethynyl)-4-methylphenyl)thiazol-2-yl)-4-((4-methylpiperazin-1-yl)methyl)benzamide] was run?
Answer: 1.5 µM

Question: For `CN1CCN(Cc2ccc(C(=O)Nc3nc(-c4cccc(C#C[Si](c5ccccc5)(c5ccccc5)C(C)(C)C)c4)cs3)cc2)CC1` [Example 25, N-(4-(3-((tert-butyldiphenylsilyl)ethynyl)phenyl)thiazol-2-yl)-4-((4-methylpiperazin-1-yl)methyl)benzamide], which IC50 is on record?
Answer: 12 µM

Question: `Cc1ccc(-c2csc(NC(=O)c3ccc(CN4CCN(C)CC4)cc3)n2)cc1C#Cc1ccccc1C(F)(F)F` [Example 7, N-(4-(4-methyl-3-((2-(trifluoromethyl)phenyl)ethynyl)phenyl)thiazol-2-yl)-4-((4-methylpiperazin-1-yl)methyl)benzamide] was tested. Which IC50 did it give?
Answer: 5 µM

Question: How did the IC50 turn out when `Cc1ccc(C#Cc2cccc(-c3csc(NC(=O)c4ccc(CN5CCN(C)CC5)cc4)n3)c2)cc1` [Example 2, 4-((4-methylpiperazin-1-yl)methyl)-N-(4-(3-(p-tolylethynyl)phenyl)thiazol-2-yl)benzamide] was run?
Answer: 5.5 µM

Question: Which IC50 does the source give for `Cc1ccc(C#Cc2cc(-c3csc(NC(=O)c4ccc(CN5CCN(C)CC5)cc4)n3)ccc2C)cc1` [Example 5, N-(4-(4-methyl-3-(p-tolylethynyl)phenyl)thiazol-2-yl)-4-((4-methylpiperazin-1-yl)methyl)benzamide] here?
Answer: 5.3 µM

Question: How did the IC50 turn out when `Cc1cc(-c2csc(NC(=O)c3ccc(CN4CCN(C)CC4)cc3)n2)ccc1C#C[Si](C(C)C)(C(C)C)C(C)C` [Example 15, N-(4-(3-methyl-4-((triisopropylsilyl)ethynyl)phenyl)thiazol-2-yl)-4-((4-methylpiperazin-1-yl)methyl)benzamide] was run?
Answer: 14 µM

Question: `CC(C)[Si](C#Cc1ccc(-c2csc(NC(=O)c3ccc(CN4CCN(C)CC4)cc3)n2)cc1C#C[Si](C(C)C)(C(C)C)C(C)C)(C(C)C)C(C)C` [Example 16, N-(4-(3,4-bis((triisopropylsilyl)ethynyl)phenyl)thiazol-2-yl)-4((4-methylpiperazin-1-yl)methyl)benzamide] was tested. Which IC50 did it give?
Answer: > 50 µM

Question: How did the IC50 turn out when `CC(C)[Si](OCC#Cc1cccc(-c2csc(NC(=O)c3ccc(CN4CCN(C)CC4)cc3)n2)c1)(C(C)C)C(C)C` [Example 22, 4-((4-methylpiperazin-1-yl)methyl)-N-(4-(3-(3-((triisopropylsilyl)oxy)prop-1-yn-1-yl)phenyl)thiazol-2-yl)benzamide] was run?
Answer: 8.5 µM

Question: For `CC(C)[Si](C#Cc1cccc(-c2csc(NC(=O)c3ccc(CN4CCOCC4)cc3)n2)c1)(C(C)C)C(C)C` [Example 38, 4-(morpholinomethyl)-N-(4-(3-((triisopropylsilyl)ethynyl)phenyl)thiazol-2-yl)benzamide], which IC50 is on record?
Answer: > 50 µM

Question: Which IC50 does the source give for `CCCCC#Cc1cccc(-c2csc(NC(=O)c3ccc(CN4CCN(C)CC4)cc3)n2)c1` [Example 20, N-(4-(3-(hex-1-yn-1-yl)phenyl)thiazol-2-yl)-4-((4-methylpiperazin-1-yl)methyl)benzamide] here?
Answer: 7.3 µM

Question: For `CC(C)[Si](C#Cc1cccc(-c2csc(NC(=O)c3ccc(-c4ccc(C(=O)N5CCN(C)CC5)cc4)o3)n2)c1)(C(C)C)C(C)C` [Example 26, 5-(4-(4-methylpiperazine-1-carbonyl)phenyl)-N-(4-(3-((triisopropylsilyl)ethynyl)phenyl)thiazol-2-yl)furan-2-carboxamide], which IC50 is on record?
Answer: 11 µM

Question: `CN1CCN(Cc2ccc(C(=O)Nc3nc(-c4cccc(C#C[Si](C)(C)C)c4)cs3)cc2)CC1` [Example 18, 4-((4-methylpiperazin-1-yl)methyl)-N-(4-(3-((trimethylsilyl)ethynyl)phenyl)thiazol-2-yl)benzamide] was tested. Which IC50 did it give?
Answer: 0.45 µM

Question: `CC(C)[Si](C#Cc1ccc(-c2csc(NC(=O)c3ccc(CN4CCN(C)CC4)cc3)n2)cc1)(C(C)C)C(C)C` [Example 35, 4-((4-methylpiperazin-1-yl)methyl)-N-(4-(4-((triisopropylsilyl)ethynyl)phenyl)thiazol-2-yl)benzamide] was tested. Which IC50 did it give?
Answer: 7.3 µM

Question: How did the IC50 turn out when `CC(C)[Si](OCC#Cc1cccc(-c2csc(NC(=O)c3ccc(-c4ccc(C(=O)N5CCN(C)CC5)cc4)o3)n2)c1)(C(C)C)C(C)C` [Example 28, 5-(4-(4-methylpiperazine-1-carbonyl)phenyl)-N-(4-(3-(3-((triisopropylsilyl)oxy)prop-1-yn-1-yl)phenyl)thiazol-2-yl)furan-2-carboxamide] was run?
Answer: 3.7 µM

Question: For `Cc1ccc(C#Cc2ccc(-c3csc(NC(=O)c4ccc(CN5CCN(C)CC5)cc4)n3)cc2C)cc1` [Example 10, N-(4-(3-methyl-4-(p-tolylethynyl)phenyl)thiazol-2-yl)-4-((4-methylpiperazin-1-yl)methyl)benzamide], which IC50 is on record?
Answer: 3 µM

Question: With `CN1CCN(Cc2ccc(C(=O)Nc3nc(-c4cccc(C#CCO[Si](C)(C)C(C)(C)C)c4)cs3)cc2)CC1` [Example 23, N-(4-(3-(3-((tert-butyldimethylsilyl)oxy)prop-1-yn-1-yl)phenyl)thiazol-2-yl)-4-((4-methylpiperazin-1-yl)methyl)benzamide] as the molecule, how does the IC50 read?
Answer: 5.9 µM
